Results as given in the supplement of paper PMC10307832.

How the values were obtained:
Assay in all cases: relative viability (nuclei count vs DMSO), 5 days (fraction); higher = more cells survive
[1] = compound: CC1=NN=C(O1)C2=NN=C(C=C2)N3CCC(CC3)OC4=C(C=CC(=C4)F)Cl + COc1cccc2cc(-c3nc([C@H]4CC[C@H](C(=O)O)CC4)n4ncnc(N)c34)[nH]c12 [OSI-027] (partner 0.5 µM)
Summary of the method: (§1)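 Lung cancer cell lines were pin-tool dosed in 1536-well plates on the day after seeding, with either a lone drug or a fixed anchor-drug dose plus five library-drug doses (not always all listed) in √10 steps. Nuclei were counted on 4× images after 5 days. Relative viability is the ratio of treated-well to vehicle-well nuclei counts, with each value a median of duplicate plates.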

[2] = compound: CC(C)C[C@@H](C(=O)N[C@H](C(=O)OC1CCCC1)c1ccccc1)[C@H](O)C(=O)NO [Tosedostat] + COc1cc2c(Oc3ccc(NC(=O)C4(C(=O)Nc5ccc(F)cc5)CC4)cc3F)ccnc2cc1OCCCN1CCOCC1 [Foretinib] (partner 0.25 µM)
Summary of the method: as §1

[3] = compound: CC1=NN=C(O1)C2=NN=C(C=C2)N3CCC(CC3)OC4=C(C=CC(=C4)F)Cl + CS(=O)(=O)CCNCc1ccc(-c2ccc3ncnc(Nc4ccc(OCc5cccc(F)c5)c(Cl)c4)c3c2)o1 [Lapatinib] (partner 2 µM)
Summary of the method: as §1

[4] = compound: CC1=NN=C(O1)C2=NN=C(C=C2)N3CCC(CC3)OC4=C(C=CC(=C4)F)Cl + Nc1nc2[nH]cc(CCc3ccc(C(=O)N[C@@H](CCC(=O)O)C(=O)O)cc3)c2c(=O)[nH]1 [Pemetrexed] (partner 0.2 µM)
Summary of the method: as §1

NCI-H1734
relative viability ([1]; first compound 0.253 µM): 0.647 | relative viability ([1]; first compound 0.8 µM): 0.446 | relative viability ([1]; first compound 2.53 µM): 0.599 | relative viability ([1]; first compound 8 µM): 0.524 | relative viability ([2]; first compound 0.02 µM): 0.93 | relative viability ([2]; first compound 0.06325 µM): 0.859 | relative viability ([2]; first compound 0.2 µM): 0.826 | relative viability ([2]; first compound 0.6325 µM): 0.818 | relative viability ([2]; first compound 2 µM): 0.652 | relative viability ([3]; first compound 0.253 µM): 0.954 | relative viability ([3]; first compound 0.8 µM): 0.683 | relative viability ([3]; first compound 2.53 µM): 0.908 | relative viability ([3]; first compound 8 µM): 0.882 | relative viability ([4]; first compound 0.253 µM): 0.433 | relative viability ([4]; first compound 0.8 µM): 0.364 | relative viability ([4]; first compound 2.53 µM): 0.434 | relative viability ([4]; first compound 8 µM): 0.438

NCI-H1755
relative viability ([1]; first compound 0.253 µM): 0.609 | relative viability ([1]; first compound 0.8 µM): 0.625 | relative viability ([1]; first compound 2.53 µM): 0.669 | relative viability ([1]; first compound 8 µM): 0.597 | relative viability ([2]; first compound 0.02 µM): 1.01 | relative viability ([2]; first compound 0.06325 µM): 0.944 | relative viability ([2]; first compound 0.2 µM): 1 | relative viability ([2]; first compound 0.6325 µM): 0.992 | relative viability ([2]; first compound 2 µM): 0.931 | relative viability ([3]; first compound 0.253 µM): 0.59 | relative viability ([3]; first compound 0.8 µM): 0.708 | relative viability ([3]; first compound 2.53 µM): 0.665 | relative viability ([3]; first compound 8 µM): 0.592 | relative viability ([4]; first compound 0.253 µM): 0.424 | relative viability ([4]; first compound 0.8 µM): 0.426 | relative viability ([4]; first compound 2.53 µM): 0.418 | relative viability ([4]; first compound 8 µM): 0.365

NCI-H1793
relative viability ([1]; first compound 0.253 µM): 0.253 | relative viability ([1]; first compound 0.8 µM): 0.2 | relative viability ([1]; first compound 2.53 µM): 0.296 | relative viability ([1]; first compound 8 µM): 0.276 | relative viability ([2]; first compound 0.02 µM): 0.559 | relative viability ([2]; first compound 0.06325 µM): 0.789 | relative viability ([2]; first compound 0.2 µM): 0.742 | relative viability ([2]; first compound 0.6325 µM): 0.629 | relative viability ([2]; first compound 2 µM): 0.637 | relative viability ([3]; first compound 0.253 µM): 0.75 | relative viability ([3]; first compound 0.8 µM): 0.688 | relative viability ([3]; first compound 2.53 µM): 0.822 | relative viability ([3]; first compound 8 µM): 0.581 | relative viability ([4]; first compound 0.253 µM): 0.843 | relative viability ([4]; first compound 0.8 µM): 0.835 | relative viability ([4]; first compound 2.53 µM): 0.977 | relative viability ([4]; first compound 8 µM): 0.79

NCI-H1915
relative viability ([1]; first compound 0.253 µM): 0.596 | relative viability ([1]; first compound 0.8 µM): 0.349 | relative viability ([1]; first compound 2.53 µM): 0.553 | relative viability ([1]; first compound 8 µM): 0.421 | relative viability ([2]; first compound 0.02 µM): 1.13 | relative viability ([2]; first compound 0.06325 µM): 1.1 | relative viability ([2]; first compound 0.2 µM): 1.14 | relative viability ([2]; first compound 0.6325 µM): 1.05 | relative viability ([2]; first compound 2 µM): 0.947 | relative viability ([3]; first compound 0.253 µM): 0.431 | relative viability ([3]; first compound 0.8 µM): 0.334 | relative viability ([3]; first compound 2.53 µM): 0.401 | relative viability ([3]; first compound 8 µM): 0.322 | relative viability ([4]; first compound 0.253 µM): 0.376 | relative viability ([4]; first compound 0.8 µM): 0.232 | relative viability ([4]; first compound 2.53 µM): 0.3 | relative viability ([4]; first compound 8 µM): 0.235

NCI-H1944
relative viability ([1]; first compound 0.253 µM): 0.36 | relative viability ([1]; first compound 0.8 µM): 0.379 | relative viability ([1]; first compound 2.53 µM): 0.441 | relative viability ([1]; first compound 8 µM): 0.425 | relative viability ([2]; first compound 0.02 µM): 0.984 | relative viability ([2]; first compound 0.06325 µM): 0.787 | relative viability ([2]; first compound 0.2 µM): 0.864 | relative viability ([2]; first compound 0.6325 µM): 0.822 | relative viability ([2]; first compound 2 µM): 0.773 | relative viability ([3]; first compound 0.253 µM): 0.452 | relative viability ([3]; first compound 0.8 µM): 0.526 | relative viability ([3]; first compound 2.53 µM): 0.553 | relative viability ([3]; first compound 8 µM): 0.426 | relative viability ([4]; first compound 0.253 µM): 0.372 | relative viability ([4]; first compound 0.8 µM): 0.328 | relative viability ([4]; first compound 2.53 µM): 0.493 | relative viability ([4]; first compound 8 µM): 0.369

NCI-H1975
relative viability ([1]; first compound 0.8 µM): 0.529 | relative viability ([1]; first compound 2.53 µM): 0.754 | relative viability ([1]; first compound 8 µM): 0.695 | relative viability ([2]; first compound 0.02 µM): 0.986 | relative viability ([2]; first compound 0.06325 µM): 0.985 | relative viability ([2]; first compound 0.2 µM): 1.12 | relative viability ([2]; first compound 0.6325 µM): 0.71 | relative viability ([2]; first compound 2 µM): 0.699 | relative viability ([3]; first compound 0.8 µM): 0.746 | relative viability ([3]; first compound 2.53 µM): 0.859 | relative viability ([3]; first compound 8 µM): 0.753 | relative viability ([4]; first compound 0.253 µM): 0.217 | relative viability ([4]; first compound 0.8 µM): 0.272 | relative viability ([4]; first compound 2.53 µM): 0.271 | relative viability ([4]; first compound 8 µM): 0.25

NCI-H1993
relative viability ([1]; first compound 0.253 µM): 0.457 | relative viability ([1]; first compound 0.8 µM): 0.552 | relative viability ([1]; first compound 2.53 µM): 0.523 | relative viability ([1]; first compound 8 µM): 0.581 | relative viability ([2]; first compound 0.02 µM): 0.72 | relative viability ([2]; first compound 0.06325 µM): 0.565 | relative viability ([2]; first compound 0.2 µM): 0.793 | relative viability ([2]; first compound 0.6325 µM): 0.675 | relative viability ([2]; first compound 2 µM): 0.534 | relative viability ([3]; first compound 0.253 µM): 0.778 | relative viability ([3]; first compound 0.8 µM): 0.801 | relative viability ([3]; first compound 2.53 µM): 0.737 | relative viability ([3]; first compound 8 µM): 0.695 | relative viability ([4]; first compound 0.253 µM): 0.533 | relative viability ([4]; first compound 0.8 µM): 0.499 | relative viability ([4]; first compound 2.53 µM): 0.566 | relative viability ([4]; first compound 8 µM): 0.541

NCI-H2009
relative viability ([1]; first compound 0.253 µM): 0.673 | relative viability ([1]; first compound 0.8 µM): 0.618 | relative viability ([1]; first compound 2.53 µM): 0.605 | relative viability ([1]; first compound 8 µM): 0.564 | relative viability ([2]; first compound 0.02 µM): 1.34 | relative viability ([2]; first compound 0.06325 µM): 1.15 | relative viability ([2]; first compound 0.2 µM): 1.19 | relative viability ([2]; first compound 0.6325 µM): 1.11 | relative viability ([2]; first compound 2 µM): 1.09 | relative viability ([3]; first compound 0.253 µM): 0.453 | relative viability ([3]; first compound 0.8 µM): 0.421 | relative viability ([3]; first compound 2.53 µM): 0.427 | relative viability ([3]; first compound 8 µM): 0.464 | relative viability ([4]; first compound 0.253 µM): 0.605 | relative viability ([4]; first compound 0.8 µM): 0.547 | relative viability ([4]; first compound 2.53 µM): 0.587 | relative viability ([4]; first compound 8 µM): 0.517

NCI-H2023
relative viability ([1]; first compound 0.253 µM): 0.33 | relative viability ([1]; first compound 0.8 µM): 0.35 | relative viability ([1]; first compound 2.53 µM): 0.35 | relative viability ([1]; first compound 8 µM): 0.314 | relative viability ([2]; first compound 0.02 µM): 0.782 | relative viability ([2]; first compound 0.06325 µM): 0.779 | relative viability ([2]; first compound 0.2 µM): 0.764 | relative viability ([2]; first compound 2 µM): 0.808 | relative viability ([3]; first compound 0.253 µM): 0.441 | relative viability ([3]; first compound 0.8 µM): 0.407 | relative viability ([3]; first compound 2.53 µM): 0.409 | relative viability ([3]; first compound 8 µM): 0.435 | relative viability ([4]; first compound 0.253 µM): 0.188 | relative viability ([4]; first compound 0.8 µM): 0.189 | relative viability ([4]; first compound 2.53 µM): 0.235 | relative viability ([4]; first compound 8 µM): 0.182

NCI-H2085
relative viability ([1]; first compound 0.253 µM): 0.594 | relative viability ([1]; first compound 2.53 µM): 0.732 | relative viability ([1]; first compound 8 µM): 0.49 | relative viability ([2]; first compound 0.02 µM): 0.919 | relative viability ([2]; first compound 0.06325 µM): 0.971 | relative viability ([2]; first compound 0.2 µM): 0.915 | relative viability ([2]; first compound 0.6325 µM): 0.965 | relative viability ([2]; first compound 2 µM): 0.875 | relative viability ([3]; first compound 0.253 µM): 0.644 | relative viability ([3]; first compound 0.8 µM): 0.627 | relative viability ([3]; first compound 2.53 µM): 0.752 | relative viability ([3]; first compound 8 µM): 0.612 | relative viability ([4]; first compound 0.253 µM): 0.801 | relative viability ([4]; first compound 0.8 µM): 0.676 | relative viability ([4]; first compound 2.53 µM): 0.841 | relative viability ([4]; first compound 8 µM): 0.696
